Counter-ions that a name gives are not always drawn.

T1 sequence (Q96SW2 whole entry, stated change not applied): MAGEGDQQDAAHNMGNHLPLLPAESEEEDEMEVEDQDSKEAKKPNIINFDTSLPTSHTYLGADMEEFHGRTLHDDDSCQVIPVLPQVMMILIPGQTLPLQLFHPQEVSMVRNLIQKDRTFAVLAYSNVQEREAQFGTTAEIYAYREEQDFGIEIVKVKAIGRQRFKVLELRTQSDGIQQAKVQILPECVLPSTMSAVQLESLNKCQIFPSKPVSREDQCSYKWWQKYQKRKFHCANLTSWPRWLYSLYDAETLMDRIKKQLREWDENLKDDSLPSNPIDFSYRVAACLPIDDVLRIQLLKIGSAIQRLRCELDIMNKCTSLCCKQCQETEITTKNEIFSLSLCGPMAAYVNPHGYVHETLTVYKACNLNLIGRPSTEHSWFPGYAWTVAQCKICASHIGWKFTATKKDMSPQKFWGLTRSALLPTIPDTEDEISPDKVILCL

One assay addresses T1, Full length Cereblon protein (6His tev Cereblon/6His tev DDB1ΔBPB) (Homo sapiens, UniProt Q96SW2).
T1 construct: Full length Cereblon protein (6His tev Cereblon/6His tev DDB1ΔBPB) was expressed and purified from E. coli; made in house; host or cells: E. coli
Briefly: Cereblon Binding Assay (TR-FRET). Conditions: 5 nM protein, 50 nM Alexa647-lenalidomide ligand, read-out: Mean pIC50 (converted). The procedure: Full length Cereblon protein (6His tev Cereblon/6His tev DDB1ΔBPB) was expressed and purified from E. coli to monitor compound binding. […] A Thermo Scientific Multidrop Combi was used to dispense 5 μL of 10 nM protein in assay buffer of 50 mM
HEPES, 150 mM NaCl, 5% glycerol, 1 mM DTT and 1 mM CHAPS, pH 7.4, in the presence of 100 nM fluorescent ligand (Final assay concentrations of 5 nM protein and 50 nM ligand). After equilibrating for 15 min in the dark at room temperature a 5 μL addition was made of 2 nM europium chelate labelled anti-6His antibody (Perkin Elmer, W1024, AD0111) in assay buffer (1 nM FAC). […] TR-FRET ratio data was normalised to high (DMSO) and low (reaction in the absence of protein) controls and pIC50 values determined for each of the compounds tested by fitting the fluorescence ratio data to a four parameter model:
[formula] • where ‘a’ is the minimum, ‘b’ is the maximum, ‘c’ is the pIC50 and ‘d’ is the Hill slope.
As to `O=C1CCN(c2cncc3c2ccn3C2CCNCC2)C(=O)N1` [ECB6, 1-(1-(piperidin-4-yl)-1H-pyrrolo[2,3-c]pyridin-4-yl)dihydropyrimidine-2,4(1H,3H)-dione], the IC50 is 25.1 nM. On the same count and under the same terms, the figure for `N#Cc1ccc(O[C@H]2CC[C@H](NC(=O)c3ccc(N4CCC(CN5CCC(n6ccc7c(N8CCC(=O)NC8=O)cccc76)C(F)(F)C5)CC4)nn3)CC2)cc1Cl` (single isomer, unassigned) [EAR162, N-((1r,4r)-4-(3-Chloro-4-cyanophenoxy)cyclohexyl)-6-(4-((4-(4-(2,4-dioxotetrahydropyrimidin-1(2H)-yl)-1H-indol-1-yl)-3,3-difluoropiperidin-1-yl)methyl)piperidin-1-yl)pyridazine-3-carboxamide] is at most 1000 nM; for `CCn1ccc2c(N3CCC(=O)NC3=O)cccc21` [ECB50, 1-(1-Ethyl-1H-indol-4-yl)dihydropyrimidine-2,4(1H,3H)-dione] it is 24 nM; for `O=C1CCN(c2cc(C(F)(F)F)cc3c2cnn3C2CCNCC2)C(=O)N1` [ECB30, 1-(1-(piperidin-4-yl)-6-(trifluoromethyl)-1H-indazol-4-yl)dihydropyrimidine-2,4(1H,3H)-dione] it is 245 nM.

With `Cn1ncc2c(N3CCC(=O)NC3=O)cccc21` [ECB46, 1-(1-Methyl-1H-indazol-4-yl)dihydropyrimidine-2,4(1H,3H)-dione], the IC50 was 309 nM. The same measure, in the same setting: the figure for `COCCn1ccc2c(N3CCC(=O)NC3=O)cccc21` [ECB48, 1-(1-(2-Methoxyethyl)-1H-indol-4-yl)dihydropyrimidine-2,4(1H,3H)-dione] is 35.5 nM; for `O=C1CCN(c2cncc3c2cnn3C2CCNCC2)C(=O)N1` [ECB8, 1-(1-(Piperidin-4-yl)-1H-pyrazolo[3,4-c]pyridin-4-yl)dihydropyrimidine-2,4(1H,3H)-dione] it is 251 nM; for `Cn1ccc2c(N3CCC(=O)NC3=O)cccc21` [ECB45, 1-(1-Methyl-1H-indol-4-yl)dihydropyrimidine-2,4(1H,3H)-dione] it is 100 nM. Take `Cn1ccc2c(N3CCC(=O)NC3=O)nccc21` [ECB47, 1-(1-Methyl-1H-pyrrolo[3,2-c]pyridin-4-yl)dihydropyrimidine-2,4(1H,3H)-dione]: the IC50 is 575 nM. On the same count and under the same terms, the figure for `O=C1CCN(c2nccc3c2cnn3C2CCNCC2)C(=O)N1` [ECB7, 1-(1-(piperidin-4-yl)-1H-pyrazolo[4,3-c]pyridin-4-yl)dihydropyrimidine-2,4(1H,3H)-dione] is 79.4 nM. As to `O=C1CCN(c2cccc3c2cnn3C2CCNCC2)C(=O)N1` [ECB18, 1-(1-(Piperidin-4-yl)-1H-indazol-4-yl)dihydropyrimidine-2,4(1H,3H)-dione], the IC50 is 10 nM. Same read-out and setting: the figure for `CC(C)n1ccc2c(N3CCC(=O)NC3=O)cc(C(=O)N(C)C3CCNCC3)cc21` [ECB15, 4-(2,4-Dioxotetrahydropyrimidin-1(2H)-yl)-1-isopropyl-N-methyl-N-(piperidin-4-yl)-1H-indole-6-carboxamide] is 25.1 nM. On the same count and under the same terms, the result for `O=C1CCN(c2cc(Cl)cc3c2ccn3C2CCNCC2)C(=O)N1` [ECB9, 1-(6-Chloro-1-(piperidin-4-yl)-1H-indol-4-yl)dihydropyrimidine-2,4(1H,3H)-dione] reads 7.94 nM.

Turning to `O=C1CCN(c2cc(F)cc3c2cnn3C2CCNCC2)C(=O)N1` [ECB10, 1-(6-Fluoro-1-(piperidin-4-yl)-1H-indazol-4-yl)dihydropyrimidine-2,4(1H,3H)-dione], the IC50 was 200 nM. Still for that read-out and setting: the figure for `O=C1CCN(c2cc(C(F)(F)F)cc3c2ccn3C2CCNCC2)C(=O)N1` [ECB37, 1-(1-(piperidin-4-yl)-6-(trifluoromethyl)-1H-indol-4-yl)dihydropyrimidine-2,4(1H,3H)-dione] is 55 nM; for `O=C1CCN(c2ccnc3c2cnn3C2CCNCC2)C(=O)N1` [ECB19, 1-(1-(piperidin-4-yl)-1H-pyrazolo[3,4-b]pyridin-4-yl)dihydropyrimidine-2,4(1H,3H)-dione] it is 380 nM.

Consider `Cc1ccc(N2CCC(=O)NC2=O)c2ccn(C)c12` [ECB49, 1-(1,7-Dimethyl-1H-indol-4-yl)dihydropyrimidine-2,4(1H,3H)-dione], for which the IC50 was 20 nM.

As to `O=C1CCN(c2nccc3c2ccn3C2CCNCC2)C(=O)N1` [ECB25, 1-(1-(piperidin-4-yl)-1H-pyrrolo[3,2-c]pyridin-4-yl)dihydropyrimidine-2,4(1H,3H)-dione], the IC50 was 229 nM. The same measure, in the same setting: the result for `CC(C)n1ccc2c(N3CCC(=O)NC3=O)cc(C(=O)N3CCNCC3)cc21` [ECB11, 1-(1-isopropyl-6-(piperazine-1-carbonyl)-1H-indol-4-yl)dihydropyrimidine-2,4(1H,3H)-dione] reads 2.51 nM.

`CCn1ccc2c(N3CCC(=O)NC3=O)cncc21` [ECB51, 1-(1-Ethyl-1H-pyrrolo[2,3-c]pyridin-4-yl)dihydropyrimidine-2,4(1H,3H)-dione]: the IC50 is 25.1 nM. For `O=C1CCN(c2ncnc3c2ccn3C2CCNCC2)C(=O)N1` [ECB17, 1-(7-(piperidin-4-yl)-7H-pyrrolo[2,3-d]pyrimidin-4-yl)dihydropyrimidine-2,4(1H,3H)-dione], the IC50 is 316 nM.

On to `CC(C)n1ccc2c(N3CCC(=O)NC3=O)cc(C(=O)N(C)CC3CCNCC3)cc21` [ECB16, 4-(2,4-Dioxotetrahydropyrimidin-1(2H)-yl)-1-isopropyl-N-methyl-N-(piperidin-4-ylmethyl)-1H-indole-6-carboxamide], for which the IC50 was 31.6 nM. Still for that read-out and setting: the result for `O=C1CCN(c2cccc3c2ccn3C[C@]2(F)CCCNC2)C(=O)N1` [ECB29, (S)-1-(1-((3-fluoropiperidin-3-yl)methyl)-1H-indol-4-yl)dihydropyrimidine-2,4(1H,3H)-dione] reads 120 nM; that for `O=C1CCN(c2cc(F)cc3c2ccn3C2CCNCC2)C(=O)N1` [ECB44, 1-(6-Fluoro-1-(piperidin-4-yl)-1H-indol-4-yl)dihydropyrimidine-2,4(1H,3H)-dione], 33.1 nM.

The target of the next assay is T2, Androgen Receptor (Homo sapiens, UniProt P10275, T878A).
T2 construct: the AR gene was modified, using CRISPR/Cas9 editing, so the expressed AR protein included an 11 amino acid HiBiT tag; endogenous in cells; host or cells: clonal LnCaP-derived line, AR gene edited by CRISPR/Cas9
T2 sequence (P10275 whole entry T878A): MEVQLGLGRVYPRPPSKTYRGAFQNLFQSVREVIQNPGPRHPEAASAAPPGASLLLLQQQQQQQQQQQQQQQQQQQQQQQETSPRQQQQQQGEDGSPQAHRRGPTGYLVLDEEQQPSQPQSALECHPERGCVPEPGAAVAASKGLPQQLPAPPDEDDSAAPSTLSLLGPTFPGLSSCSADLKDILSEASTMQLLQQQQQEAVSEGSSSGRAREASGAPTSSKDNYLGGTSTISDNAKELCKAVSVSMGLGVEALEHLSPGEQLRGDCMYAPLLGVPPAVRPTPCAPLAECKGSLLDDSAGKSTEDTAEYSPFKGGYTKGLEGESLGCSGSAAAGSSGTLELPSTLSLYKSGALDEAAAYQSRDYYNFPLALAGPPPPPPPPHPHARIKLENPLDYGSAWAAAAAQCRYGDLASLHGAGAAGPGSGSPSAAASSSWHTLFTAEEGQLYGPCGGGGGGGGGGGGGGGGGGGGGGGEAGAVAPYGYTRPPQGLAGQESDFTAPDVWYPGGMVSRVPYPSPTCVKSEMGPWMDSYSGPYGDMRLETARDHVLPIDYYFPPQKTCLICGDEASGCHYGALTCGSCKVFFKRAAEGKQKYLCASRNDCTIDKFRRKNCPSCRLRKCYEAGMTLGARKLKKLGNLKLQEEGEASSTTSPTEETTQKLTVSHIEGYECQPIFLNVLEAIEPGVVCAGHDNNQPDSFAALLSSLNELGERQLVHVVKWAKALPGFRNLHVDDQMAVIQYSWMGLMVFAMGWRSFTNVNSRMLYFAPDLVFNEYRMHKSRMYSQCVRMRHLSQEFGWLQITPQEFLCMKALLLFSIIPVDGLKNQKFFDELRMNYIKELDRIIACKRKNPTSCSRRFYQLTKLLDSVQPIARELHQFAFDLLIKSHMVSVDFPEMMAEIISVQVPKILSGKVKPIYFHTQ
T2 sequence (Q96SW2 whole entry partner): as the sequence (Q96SW2 whole entry, stated change not applied) above
T2 sequence (Q16531 whole entry partner): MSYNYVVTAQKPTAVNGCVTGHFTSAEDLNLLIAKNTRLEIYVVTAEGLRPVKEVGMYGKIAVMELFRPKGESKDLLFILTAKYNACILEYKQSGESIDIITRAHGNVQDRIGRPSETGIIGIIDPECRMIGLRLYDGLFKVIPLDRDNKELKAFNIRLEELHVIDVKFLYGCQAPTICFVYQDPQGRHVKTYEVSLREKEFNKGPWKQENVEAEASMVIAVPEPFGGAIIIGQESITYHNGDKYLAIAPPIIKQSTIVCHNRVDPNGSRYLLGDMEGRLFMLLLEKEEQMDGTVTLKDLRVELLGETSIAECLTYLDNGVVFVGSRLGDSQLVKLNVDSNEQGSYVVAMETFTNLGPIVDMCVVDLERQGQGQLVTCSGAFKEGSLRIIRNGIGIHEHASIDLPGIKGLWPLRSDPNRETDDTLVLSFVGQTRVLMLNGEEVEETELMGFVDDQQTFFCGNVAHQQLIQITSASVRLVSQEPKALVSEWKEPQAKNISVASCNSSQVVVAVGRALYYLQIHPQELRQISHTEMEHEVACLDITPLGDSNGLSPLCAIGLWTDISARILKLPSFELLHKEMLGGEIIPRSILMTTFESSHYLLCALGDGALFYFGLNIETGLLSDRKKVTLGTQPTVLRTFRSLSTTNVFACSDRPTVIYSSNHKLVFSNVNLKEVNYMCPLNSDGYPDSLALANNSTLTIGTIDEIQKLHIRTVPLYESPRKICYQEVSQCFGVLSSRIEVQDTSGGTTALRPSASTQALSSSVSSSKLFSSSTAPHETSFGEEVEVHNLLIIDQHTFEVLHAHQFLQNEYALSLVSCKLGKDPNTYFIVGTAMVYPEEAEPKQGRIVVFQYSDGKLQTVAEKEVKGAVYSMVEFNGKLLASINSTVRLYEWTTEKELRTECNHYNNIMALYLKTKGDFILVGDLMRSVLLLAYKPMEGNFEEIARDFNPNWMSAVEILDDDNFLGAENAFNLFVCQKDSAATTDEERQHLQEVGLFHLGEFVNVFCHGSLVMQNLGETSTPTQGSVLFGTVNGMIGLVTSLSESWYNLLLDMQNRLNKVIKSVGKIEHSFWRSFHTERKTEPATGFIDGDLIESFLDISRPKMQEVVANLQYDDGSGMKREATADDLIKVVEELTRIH
Briefly: Androgen Receptor Degradation Assay (Nano-Glo HiBiT). Conditions: LNCaP, 18 h, HiBiT-tagged AR in human LnCaP cells, read-out: mean asymptote max. Format: cell-based. A digest of the protocol:
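LnCaP cells with CRISPR-knocked-in N-terminal HiBiT-tagged AR (10,000/well) treated 18 h at 37 °C with PROTACs over 11 threefold concentrations; lytic HiBiT luminescence normalised to DMSO (0%) and cell-free (100%) controls. Relative DC50 = 4-parameter fit inflection; absolute DC50 = 50% degradation interpolation; Dmax = maximum observed degradation.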
(The HiBiT peptide binds its large partner to form an active luciferase.)
Consider `N#Cc1ccc(O[C@H]2CC[C@H](NC(=O)c3ccc(N4CCC(CN5CCC(n6ccc7c(N8CCC(=O)NC8=O)cccc76)C(F)(F)C5)CC4)nn3)CC2)cc1Cl` (single isomer, unassigned) [EAR162, N-((1r,4r)-4-(3-Chloro-4-cyanophenoxy)cyclohexyl)-6-(4-((4-(4-(2,4-dioxotetrahydropyrimidin-1(2H)-yl)-1H-indol-1-yl)-3,3-difluoropiperidin-1-yl)methyl)piperidin-1-yl)pyridazine-3-carboxamide], for which the Dmax was at least 50%. On the same count and under the same terms, the figure for `N#Cc1ccc(O[C@H]2CC[C@H](NC(=O)c3ccc(N4CCC5(CC4)CC(CN4CCC(n6ncc7c(N8CCC(=O)NC8=O)cccc76)CC4)C5)nn3)CC2)cc1Cl` [EAR237, N-((1r,4r)-4-(3-chloro-4-cyanophenoxy)cyclohexyl)-6-(2-((4-(4-(2,4-dioxotetrahydropyrimidin-1(2H)-yl)-1H-indazol-1-yl)piperidin-1-yl)methyl)-7-azaspiro[3.5]nonan-7-yl)pyridazine-3-carboxamide] is at least 50%; for `N#Cc1ccc(O[C@H]2CC[C@H](NC(=O)c3ccc(N4CC(CN5CCC(n6ccc7c(N8CCC(=O)NC8=O)cccc76)CC5)C4)nn3)CC2)cc1Cl` [EAR72, N-((1r,4r)-4-(3-Chloro-4-cyanophenoxy)cyclohexyl)-6-(3-((4-(4-(2,4-dioxotetrahydropyrimidin-1(2H)-yl)-1H-indol-1-yl)piperidin-1-yl)methyl)azetidin-1-yl)pyridazine-3-carboxamide hydrochloride] it is at least 50%; for `N#Cc1ccc(O[C@H]2CC[C@H](NC(=O)c3ccc(N4C5CCC4CC(CN4CCC(n6ncc7c(N8CCC(=O)NC8=O)cccc76)CC4)C5)nn3)CC2)cc1Cl` (stereo partly drawn) [EAR230, N-((1r,4r)-4-(3-chloro-4-cyanophenoxy)cyclohexyl)-6-(3-((4-(4-(2,4-dioxotetrahydropyrimidin-1(2H)-yl)-1H-indazol-1-yl)piperidin-1-yl)methyl)-8-azabicyclo[3.2.1]octan-8-yl)pyridazine-3-carboxamide] it is at least 50%. Turning to `N#Cc1ccc(O[C@H]2CC[C@H](NC(=O)c3ccc(N4CCC(CN5CCC(n6ccc7c(N8CCC(=O)NC8=O)cccc76)CC5)CC4)nn3)CC2)cc1C(F)(F)F` [EAR24, N-((1r,4r)-4-(4-Cyano-3-(trifluoromethyl)phenoxy)cyclohexyl)-6-(4-((4-(4-(2,4-dioxotetrahydropyrimidin-1(2H)-yl)-1H-indol-1-yl)piperidin-1-yl)methyl)piperidin-1-yl)pyridazine-3-carboxamide], the Dmax is at least 50%. Still for that read-out and setting: the figure for `CC(C)n1ccc2c(N3CCC(=O)NC3=O)cc(C(=O)N3CCN(CCCOc4ccc(N5C(=S)N(c6ccc(C#N)c(C(F)(F)F)c6)C(=O)C5(C)C)cc4)CC3)cc21` [EAR94, 4-(3-(4-(3-(4-(4-(2,4-Dioxotetrahydropyrimidin-1(2H)-yl)-1-isopropyl-1H-indole-6-carbonyl)piperazin-1-yl)propoxy)phenyl)-4,4-dimethyl-5-oxo-2-thioxoimidazolidin-1-yl)-2-(trifluoromethyl)benzonitrile formate] is at least 50%.

These data come from patent US20250205344A1, “2,4-DIOXOTETRAHYDROPYRIMIDINYL DERATIVES AS DEGRONS IN PROTACS” (GLAXOSMITHKLINE INTELLECTUAL PROPERTY DEVELOPMENT LIMITED, priority 2022, published 2025).
